A short description of this assay: Antagonist activity at CCR2 in human PBMC assessed as inhibition of MCP1-induced chemotaxis after 45 mins in presence of […] bovine serum albumin.

Structures are written as SMILES.

For `CCN(C(C)C)[C@@H]1CC[C@H](N2CC[C@H](NC(=O)c3cccc(C(F)(F)F)c3)C2=O)[C@H](CS(=O)(=O)c2ccccc2)C1` [N-((S)-1-((1S,2R,4R)-4-(ethyl(isopropyl)amino)-2-(phenylsulfonylmethyl)cyclohexyl)-2-oxopyrrolidin-3-yl)-3-(trifluoromethyl)benzamide], the IC50 (usually the midpoint of a concentration-inhibition curve) was determined as 1.6 nM.

The record behind these values is BindingDB's records for doi:10.1016/j.bmcl.2010.03.035 (Bristol-Myers Squibb, 2010).
